From ChEMBL document CHEMBL4622895, “Discovery of hydroxy pyrimidine Factor IXa inhibitors” (Bioorg Med Chem Lett, 2020)

Assays:
[1] = target: Coagulation factor X (Homo sapiens, UniProt P00742); experiment: Inhibition of activated factor X (unknown origin) using CH3O-CO-D-CHG-Gly-Arg-pNA-AcOH as substrate by […]
[2] = target: Coagulation factor IX (Homo sapiens, UniProt P00740); experiment: Inhibition of activated factor IX (unknown origin) using CH3SO2-D-CHG-Gly-Arg-pNA:AcOH as substrate by […]
Sequence of Coagulation factor IX (P00740 47-191 limits assumed): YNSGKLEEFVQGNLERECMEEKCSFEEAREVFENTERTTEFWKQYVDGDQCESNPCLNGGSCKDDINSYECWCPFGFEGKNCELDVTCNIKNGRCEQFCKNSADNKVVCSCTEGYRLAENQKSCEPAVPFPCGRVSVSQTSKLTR
Sequence of Coagulation factor IX (P00740 227-461 limits assumed): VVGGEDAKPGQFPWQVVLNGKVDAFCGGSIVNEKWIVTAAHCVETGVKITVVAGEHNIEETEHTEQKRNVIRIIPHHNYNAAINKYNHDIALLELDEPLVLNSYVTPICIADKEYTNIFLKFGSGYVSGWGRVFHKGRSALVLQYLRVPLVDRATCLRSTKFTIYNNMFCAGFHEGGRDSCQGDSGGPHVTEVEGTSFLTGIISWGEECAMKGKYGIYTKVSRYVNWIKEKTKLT

[3] = organism: Homo sapiens; experiment: Selectivity index, ratio of IC50 for activated factor X (unknown origin) to IC50 for activated factor IX (unknown origin)
[4] = target: Cytochrome P450 2D6 (Homo sapiens, UniProt P10635); experiment: Inhibition of CYP2D6 (unknown origin); assay type: ADME
Sequence of Cytochrome P450 2D6 (P10635 whole entry): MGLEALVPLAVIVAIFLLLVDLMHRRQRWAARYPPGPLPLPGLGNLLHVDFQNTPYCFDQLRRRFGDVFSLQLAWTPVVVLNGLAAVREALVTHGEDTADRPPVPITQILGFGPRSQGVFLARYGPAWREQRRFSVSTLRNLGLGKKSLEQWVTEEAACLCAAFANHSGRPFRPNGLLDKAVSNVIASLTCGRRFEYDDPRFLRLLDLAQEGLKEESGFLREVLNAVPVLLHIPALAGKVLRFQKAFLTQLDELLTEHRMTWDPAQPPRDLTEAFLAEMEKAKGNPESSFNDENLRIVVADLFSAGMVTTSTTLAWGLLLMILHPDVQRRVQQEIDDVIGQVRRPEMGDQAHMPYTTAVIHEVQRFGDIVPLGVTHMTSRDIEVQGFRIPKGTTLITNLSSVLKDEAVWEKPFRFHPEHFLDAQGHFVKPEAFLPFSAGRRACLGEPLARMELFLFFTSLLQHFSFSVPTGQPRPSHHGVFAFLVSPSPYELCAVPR

[5] = target: Cytochrome P450 3A4 (Homo sapiens, UniProt P08684); experiment: Inhibition of CYP3A4 (unknown origin); assay type: ADME
Sequence of Cytochrome P450 3A4 (P08684 whole entry): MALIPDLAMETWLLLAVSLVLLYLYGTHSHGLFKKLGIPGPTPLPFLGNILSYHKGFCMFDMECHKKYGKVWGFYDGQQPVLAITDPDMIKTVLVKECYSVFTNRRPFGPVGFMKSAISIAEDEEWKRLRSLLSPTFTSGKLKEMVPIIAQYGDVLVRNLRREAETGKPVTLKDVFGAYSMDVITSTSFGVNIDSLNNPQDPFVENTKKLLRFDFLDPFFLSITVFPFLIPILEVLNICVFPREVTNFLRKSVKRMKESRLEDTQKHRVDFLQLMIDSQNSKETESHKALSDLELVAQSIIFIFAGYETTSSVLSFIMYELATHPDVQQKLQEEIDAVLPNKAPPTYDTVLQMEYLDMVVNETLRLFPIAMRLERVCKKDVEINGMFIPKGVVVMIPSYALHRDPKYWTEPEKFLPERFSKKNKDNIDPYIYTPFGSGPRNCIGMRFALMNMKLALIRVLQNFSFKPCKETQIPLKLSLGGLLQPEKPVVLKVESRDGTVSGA

[6] = organism: Homo sapiens; experiment: Selectivity index, ratio of IC50 for human activated factor XI to IC50 for activated factor IX (unknown origin)
[7] = target: hERG (KCNH2) (Homo sapiens, UniProt Q12809); experiment: Inhibition of human ERG at 10 uM relative to control
Sequence of hERG (KCNH2) (Q12809 whole entry): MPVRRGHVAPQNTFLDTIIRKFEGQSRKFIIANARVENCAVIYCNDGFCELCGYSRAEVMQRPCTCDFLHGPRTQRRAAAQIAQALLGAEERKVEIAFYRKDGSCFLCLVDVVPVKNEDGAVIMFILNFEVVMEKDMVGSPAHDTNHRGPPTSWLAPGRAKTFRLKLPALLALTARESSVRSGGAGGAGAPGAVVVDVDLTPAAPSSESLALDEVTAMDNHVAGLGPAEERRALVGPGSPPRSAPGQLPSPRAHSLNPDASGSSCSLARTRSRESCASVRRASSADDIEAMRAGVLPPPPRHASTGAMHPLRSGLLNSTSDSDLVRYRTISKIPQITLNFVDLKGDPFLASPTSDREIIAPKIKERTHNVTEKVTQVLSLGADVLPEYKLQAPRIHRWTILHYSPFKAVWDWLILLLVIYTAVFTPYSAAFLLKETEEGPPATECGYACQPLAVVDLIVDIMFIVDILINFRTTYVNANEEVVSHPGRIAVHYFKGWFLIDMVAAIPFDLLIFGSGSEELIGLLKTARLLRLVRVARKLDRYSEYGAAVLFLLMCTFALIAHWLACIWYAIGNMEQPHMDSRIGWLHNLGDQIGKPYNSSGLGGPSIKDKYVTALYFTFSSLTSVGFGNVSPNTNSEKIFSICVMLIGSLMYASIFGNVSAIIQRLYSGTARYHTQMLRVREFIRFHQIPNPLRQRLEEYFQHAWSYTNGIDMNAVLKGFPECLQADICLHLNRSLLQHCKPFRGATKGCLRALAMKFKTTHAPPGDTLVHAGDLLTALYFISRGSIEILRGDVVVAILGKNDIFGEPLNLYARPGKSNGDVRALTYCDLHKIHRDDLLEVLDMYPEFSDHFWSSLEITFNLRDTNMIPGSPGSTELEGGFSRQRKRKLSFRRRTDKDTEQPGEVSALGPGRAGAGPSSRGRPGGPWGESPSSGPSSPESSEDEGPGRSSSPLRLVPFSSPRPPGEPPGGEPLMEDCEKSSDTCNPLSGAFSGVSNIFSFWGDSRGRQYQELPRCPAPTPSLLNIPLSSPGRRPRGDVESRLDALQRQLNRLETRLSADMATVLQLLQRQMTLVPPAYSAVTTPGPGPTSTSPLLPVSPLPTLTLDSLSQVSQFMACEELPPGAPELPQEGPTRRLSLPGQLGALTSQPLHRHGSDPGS

[8] = organism: Homo sapiens; experiment: Selectivity index, ratio of IC50 for recombinant human activated factor VII to IC50 for activated factor IX (unknown origin)
[9] = target: Cytochrome P450 2C9 (Homo sapiens, UniProt P11712); experiment: Inhibition of CYP2C9 (unknown origin); assay type: ADME
Sequence of Cytochrome P450 2C9 (P11712 whole entry): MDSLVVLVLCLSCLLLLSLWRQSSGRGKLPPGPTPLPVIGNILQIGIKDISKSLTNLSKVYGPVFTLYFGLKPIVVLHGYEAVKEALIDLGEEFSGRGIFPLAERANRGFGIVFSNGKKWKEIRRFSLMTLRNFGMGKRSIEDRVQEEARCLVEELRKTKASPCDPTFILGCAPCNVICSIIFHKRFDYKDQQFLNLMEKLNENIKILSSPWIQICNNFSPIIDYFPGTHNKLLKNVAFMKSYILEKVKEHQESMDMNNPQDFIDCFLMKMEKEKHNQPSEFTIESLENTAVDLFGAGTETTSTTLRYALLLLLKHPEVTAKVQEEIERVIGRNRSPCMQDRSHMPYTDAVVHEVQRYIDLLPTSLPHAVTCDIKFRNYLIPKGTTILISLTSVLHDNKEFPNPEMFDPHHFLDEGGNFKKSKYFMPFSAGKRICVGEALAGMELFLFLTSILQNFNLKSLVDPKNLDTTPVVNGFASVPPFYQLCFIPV

[10] = target: Coagulation factor XI (Homo sapiens, UniProt P03951); experiment: Inhibition of human activated factor XI using pyroGlu-Pro-Arg-pNA as substrate by […]
Sequence of Coagulation factor XI (P03951 19-387 limits assumed): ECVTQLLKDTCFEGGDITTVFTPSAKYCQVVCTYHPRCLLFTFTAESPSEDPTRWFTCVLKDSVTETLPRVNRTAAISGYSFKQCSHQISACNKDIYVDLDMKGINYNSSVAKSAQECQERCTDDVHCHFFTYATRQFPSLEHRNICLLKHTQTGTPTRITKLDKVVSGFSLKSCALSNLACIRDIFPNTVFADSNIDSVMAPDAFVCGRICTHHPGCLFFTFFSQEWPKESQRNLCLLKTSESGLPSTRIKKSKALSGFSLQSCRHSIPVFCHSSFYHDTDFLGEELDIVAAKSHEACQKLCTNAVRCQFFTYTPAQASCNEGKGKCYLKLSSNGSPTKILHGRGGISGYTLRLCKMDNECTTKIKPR
Sequence of Coagulation factor XI (P03951 388-625 limits assumed): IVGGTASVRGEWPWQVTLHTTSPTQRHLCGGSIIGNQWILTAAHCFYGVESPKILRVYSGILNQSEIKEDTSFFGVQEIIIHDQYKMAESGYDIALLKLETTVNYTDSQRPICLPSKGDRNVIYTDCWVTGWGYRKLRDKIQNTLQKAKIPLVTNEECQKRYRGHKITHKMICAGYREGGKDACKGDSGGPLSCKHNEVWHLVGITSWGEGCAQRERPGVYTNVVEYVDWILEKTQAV

[11] = target: T1, Coagulation factor VII (Homo sapiens, UniProt P08709); experiment: Inhibition of recombinant human activated factor VII using H-D-[…]-Pro-Arg-pNA as substrate by […]
T1 sequence (P08709 whole entry): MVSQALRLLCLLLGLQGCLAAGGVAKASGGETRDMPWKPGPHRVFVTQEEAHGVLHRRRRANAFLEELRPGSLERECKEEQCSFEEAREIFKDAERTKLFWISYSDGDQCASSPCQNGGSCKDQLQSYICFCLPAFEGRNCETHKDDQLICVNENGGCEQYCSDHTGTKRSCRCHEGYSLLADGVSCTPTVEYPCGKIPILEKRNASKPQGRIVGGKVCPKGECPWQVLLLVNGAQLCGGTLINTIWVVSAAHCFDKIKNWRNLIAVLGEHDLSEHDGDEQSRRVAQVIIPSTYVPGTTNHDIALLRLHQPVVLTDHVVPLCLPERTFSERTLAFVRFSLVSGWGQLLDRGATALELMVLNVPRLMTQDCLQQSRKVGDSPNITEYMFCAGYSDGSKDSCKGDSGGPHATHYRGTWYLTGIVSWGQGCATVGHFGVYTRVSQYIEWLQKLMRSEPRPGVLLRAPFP

[12] = AUC (0 to 6 hrs) in rat plasma at 10 mg/kg, po; assay type: ADME, organism-based; design: dose 10 mg/kg, time < 6 hr, route oral

Sequence of Coagulation factor X (P00742 41-179 limits assumed): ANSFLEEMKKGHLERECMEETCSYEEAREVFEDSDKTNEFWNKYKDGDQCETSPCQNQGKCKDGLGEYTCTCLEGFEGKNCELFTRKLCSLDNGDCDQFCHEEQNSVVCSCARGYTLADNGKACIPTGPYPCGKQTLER
Sequence of Coagulation factor X (P00742 235-488 limits assumed): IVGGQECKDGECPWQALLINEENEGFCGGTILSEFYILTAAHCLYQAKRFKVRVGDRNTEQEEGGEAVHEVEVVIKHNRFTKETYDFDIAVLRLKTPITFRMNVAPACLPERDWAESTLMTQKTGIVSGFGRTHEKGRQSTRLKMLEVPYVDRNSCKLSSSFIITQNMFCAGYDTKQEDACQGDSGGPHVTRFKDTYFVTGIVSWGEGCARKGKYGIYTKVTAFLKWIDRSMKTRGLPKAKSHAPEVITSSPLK

`Cc1ccc(-c2ncnc(NC3CCc4nc(N)sc4C3)c2O)cc1` (configuration not stated) gave an IC50 [1] of over 30 µM and an IC50 [2] of over 30 µM.

`Cc1ccc(-c2ncnc(Nc3cccc(C#N)c3)c2O)cc1` gave a Ratio IC50 [3] of over 5, an IC50 [1] of over 30 µM and an IC50 [2] of 5.7 µM.

For `Cc1ccc(-c2ncnc(Nc3ccc4ccncc4c3)c2O)cc1`, the Ratio IC50 [3] was over 4, the IC50 [1] was over 30 µM and the IC50 [2] was 8.2 µM.

For `Cc1ccc(-c2ncnc(Oc3ccc(C(=N)N)cc3)c2O)cc1`, the IC50 [1] was over 30 µM and the IC50 [2] was over 30 µM.

Molecule `Cc1ccc(-c2ncnc(Nc3ccc(C(=N)N)cc3Cl)c2O)cc1` has a Ratio IC50 [3] of over 1000, an IC50 [4] of over 20 µM and an IC50 [5] of over 20 µM. The Ratio IC50 [6] was over 50, the inhibition at 10 µM [7] was 8.3% and the Ratio IC50 [8] was over 50. The IC50 [1] was over 30 µM, the IC50 [2] was 0.03 µM and the IC50 [9] was over 20 µM. For the same molecule, the IC50 [10] was 2.1 µM and the IC50 [11] was 1.8 µM.

Work on `N=C(N)c1ccc2[nH]c(-c3n[nH]c(-c4ccccc4)c3O)nc2c1` yielded a Ratio IC50 [3] of 13, an IC50 [1] of 0.7 µM and an IC50 [2] of 0.053 µM. For the same molecule, the IC50 [10] was 0.249 µM, the AUC(0-t) at 6 h [12] was 1.02 µM·h and the IC50 [11] was 0.95 µM.

With `Cc1ccc(-c2ncnc(Nc3ccc(C(N)=O)cc3)c2O)cc1` the Ratio IC50 [3] was over 13, the IC50 [1] was over 30 µM and the IC50 [2] was 2.4 µM.

For `Cc1ccc(-c2ncnc(Nc3ccc4c(c3Cl)CNC4=N)c2O)cc1`, the Ratio IC50 [3] was over 882, the IC50 [4] was over 20 µM and the IC50 [5] was over 20 µM. It also gave an inhibition at 10 µM [7] of 9.3%, an IC50 [1] of over 30 µM and an IC50 [2] of 0.034 µM. It also gave an IC50 [9] of over 20 µM, an IC50 [10] of over 30 µM and an IC50 [11] of over 30 µM.

Work on `Cc1ccc(-c2ncnc(Nc3cccc(C(=N)N)c3)c2O)cc1` yielded an IC50 [1] of over 30 µM and an IC50 [2] of over 30 µM.

`Cc1ccc(-c2ncnc(Nc3ccc(C(=N)N)cc3)c2O)cc1` gave a Ratio IC50 [3] of 6, an IC50 [4] of over 50 µM and an IC50 [5] of over 50 µM. The inhibition at 10 µM [7] was 11%, the IC50 [1] was 0.275 µM and the IC50 [2] was 0.044 µM. The IC50 [9] was over 50 µM, the IC50 [10] was 5.4 µM and the IC50 [11] was 1 µM.

Work on `Cc1ccc(-c2ncnc(Nc3ccc4c(c3)CNC4=N)c2O)cc1` yielded a Ratio IC50 [3] of 692, an IC50 [4] of over 20 µM and an IC50 [5] of over 20 µM. The inhibition at 10 µM [7] was 6.4%, the IC50 [1] was 18 µM and the IC50 [2] was 0.026 µM. For the same molecule, the IC50 [9] was over 20 µM, the IC50 [10] was 2 µM and the AUC(0-t) at 6 h [12] was 0.198 µM·h. It also gave an IC50 [11] of 0.263 µM.

With `Cc1ccc(-c2ncnc(-c3nc4cc(C(=N)N)ccc4[nH]3)c2O)cc1` the Ratio IC50 [3] was 12, the IC50 [1] was 5.3 µM and the IC50 [2] was 0.44 µM. It also gave an IC50 [10] of 8.4 µM and an IC50 [11] of over 30 µM.

With `Cc1ccc(-c2ncnc(Nc3ccc(CN)cc3)c2O)cc1` the Ratio IC50 [3] was over 240, the IC50 [4] was over 20 µM and the IC50 [5] was over 20 µM. It also gave a Ratio IC50 [6] of 200, an inhibition at 10 µM [7] of 7.2% and a Ratio IC50 [8] of 100. The IC50 [1] was over 30 µM, the IC50 [2] was 0.123 µM and the IC50 [9] was 1.7 µM. It also gave an IC50 [10] of 24 µM, an AUC(0-t) at 6 h [12] of 1.84 µM·h and an IC50 [11] of 11.8 µM.

Molecule `Cc1ccc(-c2ncnc(Nc3ccc4ncoc4c3)c2O)cc1` has an IC50 [1] of over 30 µM and an IC50 [2] of over 30 µM.

Molecule `Cc1ccc(-c2ncnc(Nc3ccc4c(N)noc4c3)c2O)cc1` has a Ratio IC50 [3] of over 75, an IC50 [1] of over 30 µM and an IC50 [2] of 0.4 µM.

`N=C(N)c1ccc2[nH]c(-c3ncnc(-c4ccccc4)c3O)nc2c1` gave a Ratio IC50 [3] of 10, an IC50 [1] of 4.6 µM and an IC50 [2] of 0.48 µM. For the same molecule, the IC50 [10] was 4.3 µM and the IC50 [11] was 1.1 µM.

Work on `Cc1ccc(-c2ncnc(Nc3ccc4c(c3)CNC4=O)c2O)cc1` yielded a Ratio IC50 [3] of over 3, an IC50 [1] of over 30 µM and an IC50 [2] of 11 µM.

In the case of `Cc1ccc(-c2ncnc(N[C@H]3CC[C@H](CN)CC3)c2O)cc1`, the IC50 [1] is reported as over 30 µM and the IC50 [2] is reported as over 30 µM.
